Where a name gives a salt, the structure may show the parent alone.

T1 sequence (P25103 whole entry): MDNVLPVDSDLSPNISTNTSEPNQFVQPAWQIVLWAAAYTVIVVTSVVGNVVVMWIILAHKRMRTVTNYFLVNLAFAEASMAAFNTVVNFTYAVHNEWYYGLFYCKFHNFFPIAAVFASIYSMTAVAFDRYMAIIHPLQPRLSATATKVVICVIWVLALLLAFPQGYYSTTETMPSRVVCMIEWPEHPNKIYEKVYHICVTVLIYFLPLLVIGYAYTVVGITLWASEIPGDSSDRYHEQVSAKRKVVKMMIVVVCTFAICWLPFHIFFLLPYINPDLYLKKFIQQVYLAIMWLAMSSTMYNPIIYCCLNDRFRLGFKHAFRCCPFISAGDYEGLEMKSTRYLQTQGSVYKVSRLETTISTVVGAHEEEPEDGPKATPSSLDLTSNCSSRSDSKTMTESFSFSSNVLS

One data set addresses T1, recombinant human NK1 receptors (Homo sapiens, UniProt P25103).
T1 construct: expressed in transfected cells; host or cells: Chinese Hamster Ovary (CHO) cells, membrane preparation
The data set is described as follows: NK1-receptor binding affinity, displacement of [3H]-substance P. The note with it: displacement of [3H]-substance P from recombinant human NK1 receptors expressed in CHO cell membranes; average of at least two determinations. Here is the method:
NK1-receptor binding affinity has been determined in vitro by the compounds' ability to displace [3H]-substance P (SP) from recombinant human NK1 receptors expressed in Chinese Hamster Ovary (CHO) cell membranes.
CHO cell membranes were prepared by using a modification of the method described by Dam T and Quirion R (Peptides, 7:855-864, 1986). Thus ligand binding was performed in 0.4 ml of 50 mM HEPES, pH 7.4, containing 3 mM MnCl2, 0.02% BSA, 0.5 nM [^3H]-Substance P (30÷56 Ci/mmol, Amersham), a final membrane concentration of 25 μg of protein/ml, and the test compounds. The incubation proceeded at room temperature for 40 min. Non-specific binding was determined using excess of Substance P (1 μM) and represents about 6% of the total binding.
The affinity of the compound of the invention for NK1 receptor was determined using the NK1-receptor binding affinity method measuring in vitro by the compounds' ability to displace [3H]-substance P (SP) from recombinant human NK1 receptors expressed in Chinese Hamster Ovary (CHO) cell membranes. The affinity values are expressed as negative logarithm of the inhibition constant (Ki) of displacer ligands (pKi).
The pKi values obtained as the average of at least two determinations with representative compounds of the invention are given in the following table: […]
As for `Cc1cc(F)ccc1[C@H]1CNCCN1C(=O)N(C)Cc1cc(Cl)ccc1Cl` [Example 7, 2-(S)-(4-Fluoro-2-methyl-phenyl)-piperazine-1-carboxylic Acid, (2,5-dichloro-benzyl)-methylamide Hydrochloride], the Ki was 0.851 nM.
The same measure, in the same setting: for `Cc1cc(F)ccc1[C@H]1CNCCN1C(=O)N(C)Cc1ccc(Cl)c(Cl)c1` [Example 8, 2-(S)-(4-fluoro-2-methyl-phenyl)-piperazine-1-carboxylic Acid, (3,4-dichlorobenzyl)-methylamide Trifluoroacetate] the value was 0.646 nM.
Still for that read-out and setting: for `Cc1cc(C)cc(CN(C)C(=O)N2CCNC[C@@H]2c2ccc(F)cc2C)c1` [Example 2, 2-(S)-(4Fluoro-2-methyl-phenyl)piperazine-1-carboxylic Acid, (3,5-dimethyl-benzyl)-methylamide Hydrochloride] the value was 0.724 nM; for `Cc1cc(F)ccc1[C@H]1CNCCN1C(=O)N(C)Cc1cc(F)cc(F)c1` [Example 6, 2-(S)-(4-Fluoro-2-methyl-phenyl)-piperazine-1-carboxylic Acid, (3,5-difluoro-benzyl)-methylamide Hydrochloride], 1.66 nM.
Still for that read-out and setting: for `Cc1cc(F)ccc1[C@H]1CNCCN1C(=O)N(C)Cc1cc(Cl)cc(Cl)c1.Cl` [Example 3, 2-(S)-(4-Fluoro-2-methyl-phenyl)-piperazine-1-carboxylic Acid, (3,5-dichloro-benzyl)-methylamide Hydrochloride] the value was 0.372 nM.

System in another data set: not given
Test: not given
Conditions: not given
On to `Cc1cc(F)ccc1[C@H]1CNCCN1C(=O)N(C)Cc1cc(Cl)cc(Cl)c1.Cl` [Example 3, 2-(S)-(4-Fluoro-2-methyl-phenyl)-piperazine-1-carboxylic Acid, (3,5-dichloro-benzyl)-methylamide Hydrochloride], for which the melting point lay in the range of 110 to 112 °C.

Broadly, the Ki is a dissociation constant, usually derived from enzyme kinetics or from competition with a known ligand. The melting point is the temperature, or range, at which the solid turns liquid.

Source of the values: patent publication US20040157858A1, “Piperazine derivatives as tachykinin antagonists” (priority 2001, published 2004).
